Results published in patent US20250051324A1, “PARP INHIBITOR, PHARMACEUTICAL COMPOSITION COMPRISING SAME, AND USE THEREOF” (KEYTHERA (SUZHOU) BIO-PHARMACEUTICALS CO., LIMITED, priority 2021, published 2025).

How the values were obtained:
PARP1 = PARP1 (Homo sapiens (Human), UniProt P09874); assay: PARP1 trapping assay; assay type: biochemical; conditions: read-out: Inhibitory Effect on PARP1 Trapping IC50
Procedure, shortened: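 PARP1 and PARP2 with GST-Tb antibody and probe incubated with serially diluted compounds for 45 min at room temperature, then NAD added for 10 min before plate reading. Percent inhibition derived from compound, blank and vehicle control readings.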

[1] = test system: MDA-MB-436 breast cancer cells; assay: Cell proliferation assay, MDA-MB-436; assay type: cell-based; conditions: Homo sapiens, MDA-MB-436, 168 h, read-out: MDA-MB-436 Cell IC50
Procedure, shortened: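 Cells seeded 16 h, then exposed to a 9-point 1:3 compound dilution series for 7 days at 37° C., 5% CO2; DMSO-matched and cell-free controls. Viability by CellCounting-Lite luminescence; IC50 from log concentration versus % inhibition.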

Chain of PARP1 (P09874 whole entry): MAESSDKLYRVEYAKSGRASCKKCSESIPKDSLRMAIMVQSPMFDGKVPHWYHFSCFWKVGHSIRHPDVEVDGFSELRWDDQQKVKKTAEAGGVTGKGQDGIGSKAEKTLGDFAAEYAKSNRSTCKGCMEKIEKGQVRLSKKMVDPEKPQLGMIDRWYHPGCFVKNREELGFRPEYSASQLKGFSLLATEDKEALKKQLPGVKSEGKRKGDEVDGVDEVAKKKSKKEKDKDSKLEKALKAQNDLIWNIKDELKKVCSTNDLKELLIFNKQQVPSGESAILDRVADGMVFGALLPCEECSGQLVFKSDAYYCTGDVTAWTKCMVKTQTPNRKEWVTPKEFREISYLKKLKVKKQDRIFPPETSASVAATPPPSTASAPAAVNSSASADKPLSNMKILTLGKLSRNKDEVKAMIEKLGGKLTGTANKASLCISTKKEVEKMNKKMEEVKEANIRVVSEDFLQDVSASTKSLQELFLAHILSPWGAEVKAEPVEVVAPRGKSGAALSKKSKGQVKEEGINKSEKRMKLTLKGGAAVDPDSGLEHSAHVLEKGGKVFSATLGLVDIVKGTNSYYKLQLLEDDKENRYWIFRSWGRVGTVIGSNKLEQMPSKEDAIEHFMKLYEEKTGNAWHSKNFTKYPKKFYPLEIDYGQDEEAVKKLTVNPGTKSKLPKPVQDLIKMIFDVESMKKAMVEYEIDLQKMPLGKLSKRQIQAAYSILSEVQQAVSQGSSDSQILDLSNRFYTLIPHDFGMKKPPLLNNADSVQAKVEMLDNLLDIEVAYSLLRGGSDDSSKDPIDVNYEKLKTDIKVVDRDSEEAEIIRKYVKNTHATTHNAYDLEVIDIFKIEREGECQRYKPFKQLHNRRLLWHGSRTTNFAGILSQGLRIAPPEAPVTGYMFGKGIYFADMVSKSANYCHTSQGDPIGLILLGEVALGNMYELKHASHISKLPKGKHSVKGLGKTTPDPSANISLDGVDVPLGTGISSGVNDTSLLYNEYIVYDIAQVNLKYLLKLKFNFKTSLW

`CNC(=O)c1ccc(N2CCN(Cc3cnc4c(C)c(C(F)(F)F)c(=O)[nH]c4c3)CC2)cn1` [Compound 1, N-methyl-5-(4-((8-methyl-6-oxo-7-(trifluoromethyl)-5,6-dihydro-1,5-naphthyridin-3-yl)methyl)piperazin-1-yl)picolinamide] was tested, and the IC50 (PARP1) was 1.33 nM and the IC50 [1] was 1.59 nM.
